Results on 15 compounds are retold here after patent US8637504B2, “Sulfur-containing heterocyclic derivative having beta secretase inhibitory activity” (Shionogi & Co., Ltd., priority 2008, dated 2014).

The nature of one data set: Solubility test. The following applies: pH 1.2, simulated gastric fluid, kinetic from dmso stock; JP-I medium, turbidity after 4 hours. It counts as physicochemical. As for the experimental part: A 2-fold dilution series (12 points) of a 10 mM solution of a test compound in DMSO was added to a medium (JP-I, JP-II) (2%), and solubility was assessed by 3 stages (High; >40 Medium; 3-40 μM, Low; <3 μM) from a turbidity after 4 hours (crystallization information).

For another data set, the target named is Recombinant human BACE-1 (Homo sapiens (Human), UniProt P56817). Put plainly: Assay of β-secretase-inhibiting activity.
The target of the next data set is CYP1A2 (Homo sapiens (Human), UniProt P05177). The experiment in a line: CYP inhibition test (CYP1A2). The class given is in vitro ADME. To be noted: pooled human hepatic microsome, 7-ethoxyresorufin O-deethylation. The procedure:
(§1) After the centrifugation at 3000 rpm for 15 minutes, resorufin (CYP1A2 metabolite) in the supernatant was quantified by a fluorescent multilabel counter and tributamide hydroxide (CYP2CP metabolite), mephenyloin 4′ hydroxide (CYP2C19 metabolite), […] (CYP2D6 metabolite), and terfenadine alcohol (CYP3A4 metabolite) were quantified by LC/MS/MS. Addition of only DMSO being a solvent dissolving a drug to a reaction system was adopted as a control (100%), remaining activity (%) was calculated at each concentration of a test drug added as the solution and […] was calculated by reverse presumption by a logistic model using a concentration and an inhibition rate.

The target of the next data set is CYP2C9 (Homo sapiens (Human), UniProt P11712). The experiment in a line: CYP inhibition test (CYP2C9). The class given is in vitro ADME. To be noted: pooled human hepatic microsome, tolbutamide methyl-hydroxylation. As for the experimental part: as §1
A further data set addresses CYP2C19 (Homo sapiens (Human), UniProt P33261). Put plainly: CYP inhibition test (CYP2C19). It counts as in vitro ADME. To be noted: pooled human hepatic microsome, mephenyloin 4′-hydroxylation. As for the experimental part: as §1
A further data set deals with CYP2D6 (Homo sapiens (Human), UniProt P10635). Put plainly: CYP inhibition test (CYP2D6). It counts as in vitro ADME. To be noted: pooled human hepatic microsome, dextromethorphan O-demethylation. The procedure:
as §1

The target in data set [1] is T1, CYP3A4 (Homo sapiens (Human), UniProt P08684). The experiment in a line: CYP inhibition test (CYP3A4). The class given is in vitro ADME. To be noted: pooled human hepatic microsome, terfenedine hydroxylation. The procedure:
as §1

A short description of data set [2]: Metabolism stability test. It counts as in vitro ADME. To be noted: human liver microsomes 0.5 mg protein/mL, NADPH, 37° C., 30 minutes. The procedure:
Using a commercially available pooled human hepatic microsomes, a test compound was reacted for a constant time, a remaining rate was calculated by comparing a reacted sample and an unreacted sample, thereby, a degree of metabolism in liver was assessed.
A reaction was performed (oxidative reaction) at 37° C. for 0 minute or 30 minutes in the presence of 1 mmol/L NADPH in 0.2 mL of a buffer (50 mmol/L Tris-HCl pH 7.4, 150 mmol/L potassium chloride, 10 mmol/L magnesium chloride) containing 0.5 mg protein/mL of human liver microsomes. After the reaction, 50 μl, of the reaction solution was added to 100 μL of a methanol/acetonitrile=1/1 (v/v), mixed and centrifuged at 3000 rpm for 15 minutes. The test compound in the supernatant was quantified by LC/MS/MS, and a remaining amount of the test compound after the reaction was calculated, letting a compound amount at 0 minute reaction time to be 100%.

The target in data set [3] is human ether-a-go-go related gene (hERG) channel (Homo sapiens (Human), UniProt Q12809). Put plainly: hERG test. It counts as cell-based. To be noted: HEK293 cells expressing hERG, patch clamp, applied 10 minutes. The text has this:
For the purpose of assessing risk of an electrocardiogram QT interval prolongation, effects on delayed rectifier K+ current (IKr), which plays an important role in the ventricular repolarization process, was studied using HEK293 cells expressing human ether-a-go-go related gene (hERG) channel.
After a cell was retained at a membrane potential of −80 mV by whole cell patch clamp method using an automated patch clamp system (PatchXpress 7000A, Axon Instruments Inc.), IKr induced by depolarization pulse stimulation at +50 mV for 2 seconds and, further, repolarization pulse stimulation at −50 mV for 2 seconds was recorded. […] From the recording IKr, an absolute value of the tail peak current was measured based on the current value at the resting membrane potential using an analysis software (DataXpress ver.1, Molecular Devices Corporation). Further, the % inhibition relative to the tail peak current before application of the test substance was calculated, and compared with the vehicle-applied group (0.1% dimethyl sulfoxide solution) to assess influence of the test substance on IKr.

The target of data set [4] is T1, CYP3A4. Put plainly: CYP3A4 fluorescent MBI test. The class given is in vitro ADME. The following applies: pre-reaction time 0 or 30 minutes, substrate 7-BFC. The procedure: The CYP3A4 fluorescent MBI test is a test of investigating enhancement of CYP3A4 inhibition of a compound by a metabolism reaction, and the test was performed using, as CYP3A4 enzyme expressed in Escherichia coli and employing, as an index, a reaction in which 7-benzyloxytrifluoromethylchmarin (7-BFC) is debenzylated by the CYP3A4 enzyme to produce a metabolite, 7-hydroxytrifluoromethylchmarin (HFC) emitting fluorescent light.
The reaction conditions were as follows: substrate, 5.6 μmol/L 7-BFC; pre-reaction time, 0 or 30 minutes; reaction time, 15 minutes; reaction temperature, 25° C. […]
An enzyme in a K-Pi buffer (pH 7.4) and a test drug solution as a pre-reaction solution were added to a 96-well plate at the composition of the pre-reaction, a part of it was transferred to another 96-well plate so that it was 1/10 diluted by a substrate in a K-Pi buffer, NADPH as a co-factor was added to initiate a reaction as an index (without preincubation) and, after a predetermined time of a reaction, acetonitrile/0.5 mol/L Tris (trishydroxyaminomethane)=4/1 was added to stop the reaction. […] For the plate on which each index reaction had been performed, a fluorescent value of 7-HFC which is a metabolite was measured with a fluorescent plate reader. […]

The mark [5] stands for this setting: Recombinant human BACE-1 7.4 nM, substrate peptide 18 nM, pH 5.0, 30° C. 3 hours.

SMILES strings stand for the structures. Read-outs that look alike come from different tables or passages of the source.

Sequence of CYP2C19 (P33261 whole entry): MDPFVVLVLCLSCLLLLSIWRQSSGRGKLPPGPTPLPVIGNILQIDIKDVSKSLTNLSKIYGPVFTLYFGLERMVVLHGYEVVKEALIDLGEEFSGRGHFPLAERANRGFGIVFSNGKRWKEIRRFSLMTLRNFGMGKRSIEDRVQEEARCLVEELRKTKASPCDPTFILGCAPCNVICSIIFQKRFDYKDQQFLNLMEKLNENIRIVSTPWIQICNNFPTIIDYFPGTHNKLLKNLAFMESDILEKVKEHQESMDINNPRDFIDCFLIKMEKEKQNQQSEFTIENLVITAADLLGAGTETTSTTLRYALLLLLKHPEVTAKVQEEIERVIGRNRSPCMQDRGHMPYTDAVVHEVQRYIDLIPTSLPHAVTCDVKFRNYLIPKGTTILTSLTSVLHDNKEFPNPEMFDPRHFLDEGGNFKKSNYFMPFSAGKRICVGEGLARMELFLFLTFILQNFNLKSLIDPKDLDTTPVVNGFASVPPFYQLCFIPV
Sequence of CYP1A2 (P05177 whole entry): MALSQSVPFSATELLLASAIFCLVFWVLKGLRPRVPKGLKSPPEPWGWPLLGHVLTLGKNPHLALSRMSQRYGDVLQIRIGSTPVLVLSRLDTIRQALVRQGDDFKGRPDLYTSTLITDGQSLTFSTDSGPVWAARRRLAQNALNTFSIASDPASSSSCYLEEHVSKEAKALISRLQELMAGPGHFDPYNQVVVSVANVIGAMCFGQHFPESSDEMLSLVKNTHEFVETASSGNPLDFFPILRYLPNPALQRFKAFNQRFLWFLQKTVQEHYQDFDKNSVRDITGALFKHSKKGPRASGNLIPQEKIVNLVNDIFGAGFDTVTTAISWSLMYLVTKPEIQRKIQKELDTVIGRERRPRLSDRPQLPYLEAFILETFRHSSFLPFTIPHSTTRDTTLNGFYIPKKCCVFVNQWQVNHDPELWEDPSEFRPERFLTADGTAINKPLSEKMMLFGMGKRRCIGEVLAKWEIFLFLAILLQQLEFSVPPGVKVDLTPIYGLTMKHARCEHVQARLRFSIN
Sequence of Recombinant human BACE-1 (P56817 46-501): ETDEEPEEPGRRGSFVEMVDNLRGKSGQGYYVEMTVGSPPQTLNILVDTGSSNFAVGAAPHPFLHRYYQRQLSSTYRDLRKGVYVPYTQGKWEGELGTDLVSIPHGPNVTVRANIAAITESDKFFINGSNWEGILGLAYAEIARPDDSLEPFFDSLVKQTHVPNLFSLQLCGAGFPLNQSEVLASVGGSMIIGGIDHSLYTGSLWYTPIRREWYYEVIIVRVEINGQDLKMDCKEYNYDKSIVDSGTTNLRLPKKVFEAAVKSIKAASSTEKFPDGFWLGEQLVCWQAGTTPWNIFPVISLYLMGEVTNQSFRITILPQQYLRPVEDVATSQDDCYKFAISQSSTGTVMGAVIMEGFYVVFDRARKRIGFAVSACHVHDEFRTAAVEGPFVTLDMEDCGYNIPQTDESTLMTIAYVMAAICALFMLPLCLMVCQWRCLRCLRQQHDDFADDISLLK
Sequence of CYP2D6 (P10635 whole entry): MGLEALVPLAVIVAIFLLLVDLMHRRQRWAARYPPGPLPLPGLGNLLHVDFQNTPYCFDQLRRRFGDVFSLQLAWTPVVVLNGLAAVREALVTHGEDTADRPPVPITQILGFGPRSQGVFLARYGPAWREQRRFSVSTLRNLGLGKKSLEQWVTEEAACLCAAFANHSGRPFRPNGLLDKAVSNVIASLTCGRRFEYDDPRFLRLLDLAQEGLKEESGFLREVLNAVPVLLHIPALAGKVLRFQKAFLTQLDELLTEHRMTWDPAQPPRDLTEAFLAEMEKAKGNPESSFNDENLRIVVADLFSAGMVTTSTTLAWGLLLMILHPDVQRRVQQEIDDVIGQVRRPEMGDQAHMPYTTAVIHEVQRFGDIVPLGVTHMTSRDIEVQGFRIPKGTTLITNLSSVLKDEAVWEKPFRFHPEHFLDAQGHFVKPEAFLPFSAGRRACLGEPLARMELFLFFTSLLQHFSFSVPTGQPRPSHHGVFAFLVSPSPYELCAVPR
Sequence of CYP2C9 (P11712 whole entry): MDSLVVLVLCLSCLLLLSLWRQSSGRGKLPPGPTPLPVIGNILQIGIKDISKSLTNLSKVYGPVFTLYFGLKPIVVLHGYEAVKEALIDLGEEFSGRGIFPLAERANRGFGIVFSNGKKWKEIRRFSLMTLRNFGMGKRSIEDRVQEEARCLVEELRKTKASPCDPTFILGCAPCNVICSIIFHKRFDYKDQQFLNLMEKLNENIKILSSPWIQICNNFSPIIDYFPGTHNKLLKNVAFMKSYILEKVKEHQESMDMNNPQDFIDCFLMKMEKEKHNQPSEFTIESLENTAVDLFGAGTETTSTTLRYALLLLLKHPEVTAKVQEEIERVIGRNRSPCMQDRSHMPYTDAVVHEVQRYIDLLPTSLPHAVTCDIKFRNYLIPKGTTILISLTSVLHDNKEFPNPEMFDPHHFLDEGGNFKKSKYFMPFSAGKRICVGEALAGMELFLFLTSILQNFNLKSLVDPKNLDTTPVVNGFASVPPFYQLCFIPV
T1 sequence (P08684 whole entry): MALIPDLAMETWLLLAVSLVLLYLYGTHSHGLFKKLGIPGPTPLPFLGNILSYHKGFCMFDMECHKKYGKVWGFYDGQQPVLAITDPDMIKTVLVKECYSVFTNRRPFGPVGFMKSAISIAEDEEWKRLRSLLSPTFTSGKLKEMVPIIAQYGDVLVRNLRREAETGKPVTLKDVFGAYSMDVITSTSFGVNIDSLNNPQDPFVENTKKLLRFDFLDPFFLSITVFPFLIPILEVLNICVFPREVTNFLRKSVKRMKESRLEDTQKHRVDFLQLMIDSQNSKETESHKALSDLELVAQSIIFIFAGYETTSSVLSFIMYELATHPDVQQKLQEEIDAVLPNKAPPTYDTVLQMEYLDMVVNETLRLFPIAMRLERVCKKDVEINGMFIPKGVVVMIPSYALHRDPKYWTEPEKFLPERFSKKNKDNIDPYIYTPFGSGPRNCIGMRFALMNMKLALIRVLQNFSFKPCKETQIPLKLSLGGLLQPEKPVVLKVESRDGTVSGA
Sequence of human ether-a-go-go related gene (hERG) channel (Q12809 whole entry): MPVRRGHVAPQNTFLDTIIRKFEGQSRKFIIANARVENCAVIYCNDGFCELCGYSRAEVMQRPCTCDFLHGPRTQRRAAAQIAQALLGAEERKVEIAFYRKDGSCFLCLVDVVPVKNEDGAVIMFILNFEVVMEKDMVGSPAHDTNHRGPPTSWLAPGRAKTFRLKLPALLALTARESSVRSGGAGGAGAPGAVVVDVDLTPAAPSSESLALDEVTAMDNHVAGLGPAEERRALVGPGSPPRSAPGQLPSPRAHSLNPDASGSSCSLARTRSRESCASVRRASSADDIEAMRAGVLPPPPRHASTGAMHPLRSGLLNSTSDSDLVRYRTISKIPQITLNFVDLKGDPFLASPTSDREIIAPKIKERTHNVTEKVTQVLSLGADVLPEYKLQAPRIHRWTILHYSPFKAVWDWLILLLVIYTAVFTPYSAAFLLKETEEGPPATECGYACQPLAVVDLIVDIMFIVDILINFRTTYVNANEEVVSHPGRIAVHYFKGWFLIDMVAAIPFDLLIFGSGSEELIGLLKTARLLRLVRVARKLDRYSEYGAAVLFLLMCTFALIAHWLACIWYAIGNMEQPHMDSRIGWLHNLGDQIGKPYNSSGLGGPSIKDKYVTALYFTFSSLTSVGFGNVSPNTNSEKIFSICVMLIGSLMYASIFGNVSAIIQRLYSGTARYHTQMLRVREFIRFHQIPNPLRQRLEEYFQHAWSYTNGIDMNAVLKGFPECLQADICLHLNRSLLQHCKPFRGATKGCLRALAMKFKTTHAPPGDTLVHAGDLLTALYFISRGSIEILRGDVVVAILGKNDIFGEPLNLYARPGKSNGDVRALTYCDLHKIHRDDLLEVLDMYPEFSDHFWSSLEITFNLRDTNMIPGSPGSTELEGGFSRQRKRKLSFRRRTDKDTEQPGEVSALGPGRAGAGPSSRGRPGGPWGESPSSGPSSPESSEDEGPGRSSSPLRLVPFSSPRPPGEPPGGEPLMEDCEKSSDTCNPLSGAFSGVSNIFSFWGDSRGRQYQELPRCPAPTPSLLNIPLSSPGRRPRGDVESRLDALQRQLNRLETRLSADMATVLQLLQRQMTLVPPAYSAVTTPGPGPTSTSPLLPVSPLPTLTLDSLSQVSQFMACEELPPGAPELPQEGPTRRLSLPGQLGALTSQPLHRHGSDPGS

`C[C@@]1(c2cc(NC(=O)c3ccc(OCCF)cn3)ccc2F)C=CSC(N)=N1` [Compound 32] had a solubility at 4 h in “Solubility test” greater than 40 µM. Also, the IC50 on Recombinant human BACE-1 is no more than 1 µM.

For the compound `Cc1cc(C(=O)Nc2ccc(F)c([C@]3(C)C=CSC(N)=N3)c2)n(C)n1` [Compound 35], the IC50 against CYP1A2 is greater than 20 µM; at CYP2C9 it was greater than 20 µM; against CYP2C19, greater than 20 µM; on CYP2D6, greater than 20 µM; at CYP3A4 [1], greater than 20 µM; on Recombinant human BACE-1 (setting [5]) it was 0.096 µM.

As to `C[C@@]1(c2cc(NC(=O)c3cnc(-c4ncco4)cn3)ccc2F)C=CSC(N)=N1` [Compound 38], the “remaining amount of the test compound after the reaction” value (“remaining amount of the test compound” for short) in data set [2] amounted to 95%. In addition, the IC50 at Recombinant human BACE-1 (setting [5]) was 0.304 µM.

In the case of `Cn1ccnc1COc1cnc(C(=O)Nc2ccc(F)c([C@]3(C)C=CSC(N)=N3)c2)cn1` [Compound 60], the solubility at 4 h in the data set “Solubility test” is greater than 40 µM. Further, on Recombinant human BACE-1 (setting [5]), the IC50 was 0.243 µM.

Take `C[C@@]1(c2cc(NC(=O)c3cc4n(n3)CCN4)ccc2F)C=CSC(N)=N1` [Compound 63]: the IC50 against CYP1A2 is greater than 20 µM; on CYP2C9, greater than 20 µM; on CYP2C19 it was greater than 20 µM; against CYP2D6, greater than 20 µM; at CYP3A4 [1], greater than 20 µM; at Recombinant human BACE-1 (setting [5]) it was 0.435 µM.

Turning to `CC(C)(C)S(=O)(=O)Nc1cnc(C(=O)Nc2ccc(F)c([C@]3(C)C=CSC(N)=N3)c2)cn1` [Compound 68], the IC50 on CYP1A2, against CYP2C9, at CYP2C19, against CYP2D6 and on CYP3A4 [1] was greater than 20 µM throughout.

As for `C[C@@]1(c2cc(NC(=O)c3cnc(-n4cncn4)cn3)ccc2F)C=CSC(N)=N1` [Compound 70], the solubility at 4 h in the data set “Solubility test” is greater than 40 µM. In addition, the “remaining amount of the test compound” value in data set [2] was found to be 94%. The 50% inhibitory concentration (IC50) at Recombinant human BACE-1 (setting [5]) was found to be 0.036 µM.

Regarding `CNC(=O)c1ccc(-c2ccc(F)c([C@]3(C)C=CSC(N)=N3)c2)cn1` [Compound 92], in data set [3], the “% inhibition of tail peak current (IKr)” value was determined as 7.9%.

At CYP3A4 [4], `C=C1C[C@@](C)(c2cc(NC(=O)c3cnc(OC)cn3)cnc2Cl)N=C(N)S1` [Compound 99] yielded an IC50 difference (with/without preincubation) of less than 3 µM. On Recombinant human BACE-1 (setting [5]), the half-inhibitory concentration (IC50) was 0.014 µM.

As to `C=C1C[C@@](C)(c2cc(NC(=O)c3cnc(OC)cn3)cnc2C)N=C(N)S1` [Compound 102], the “% inhibition of tail peak current (IKr)” value in data set [3] is 2.3%. The IC50 on Recombinant human BACE-1 (setting [5]) is 0.036 µM.

For `C=C1C[C@@](C)(c2cncc(NC(=O)c3cnc(OC)cn3)c2)N=C(N)S1` [Compound 104], the IC50 against CYP1A2 was greater than 20 µM; against CYP2C9 it was greater than 20 µM; on CYP2C19, greater than 20 µM; on CYP2D6, greater than 20 µM; against CYP3A4 [1], greater than 20 µM; on Recombinant human BACE-1 (setting [5]), 0.063 µM.

On to `C=C1C[C@@](C)(c2cncc(NC(=O)c3ncc(C(F)(F)F)cc3Cl)c2)N=C(N)S1` [Compound 106], for which the IC50 at CYP1A2 was greater than 20 µM; at CYP2C9, greater than 20 µM; on CYP2C19 it was greater than 20 µM; at CYP2D6, greater than 20 µM; at CYP3A4 [1] it was greater than 20 µM; at Recombinant human BACE-1 (setting [5]) it was 0.102 µM.

In turn, `CC1=C[C@@](C)(c2cncc(NC(=O)c3ccc(C#N)cn3)c2)N=C(N)S1` [Compound 108] came in with an IC50 difference (with/without preincubation) on CYP3A4 [4] of less than 3 µM. Besides, the IC50 on Recombinant human BACE-1 was no more than 1 µM.

With `C[C@@]1(c2cccc(-c3cncc(C#N)c3)c2)CCSC(N)=N1` [Compound 212], the “remaining amount of the test compound” value in data set [2] is on record as 95%.

As to `C[C@@]1(c2cccc(-c3ccc(F)nc3F)c2)CCSC(N)=N1` [Compound 213], the “remaining amount of the test compound” value in data set [2] is 98%.
